In the supplement of paper PMC10307832:

Experiments:
Assay in all cases: relative viability (nuclei count vs DMSO), 5 days (fraction); higher = more cells survive
[1] = compound: CC1=C(C=C(C=C1)NC(=O)C2=CC(=CC=C2)C(C)(C)C#N)NC3=CC4=C(C=C3)N=CN(C4=O)C [AZ628] + N=C(N)NC(=N)NCCc1ccccc1 [Phenformin] (partner 250 µM)
Procedure, shortened: (§1)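 Five library-drug doses in √10 steps were combined with a fixed anchor-drug dose, or a single drug was given alone, by pin tool to lung cancer cell lines in 1536-well plates the day after seeding. Nuclei were stained and counted after 5 days. Relative viability is the nuclei count in treated wells over that in vehicle wells, taken as the median of duplicate plates.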

[2] = compound: C[As](C)SC[C@H](NC(=O)CC[C@H](N)C(=O)O)C(=O)NCC(=O)O [Darinaparsin] + Nc1ncn([C@H]2C[C@H](O)[C@@H](CO)O2)c(=O)n1 [Decitabine] (partner 2 µM)
Procedure, shortened: as §1

[3] = compound: CC1=C(C=C(C=C1)NC(=O)C2=CC(=CC=C2)C(C)(C)C#N)NC3=CC4=C(C=C3)N=CN(C4=O)C [AZ628] + Cc1nc(Nc2ncc(C(=O)Nc3c(C)cccc3Cl)s2)cc(N2CCN(CCO)CC2)n1 [Dasatinib] (partner 0.075 µM)
Procedure, shortened: as §1

[4] = compound: CC1=C(C=C(C=C1)NC(=O)C2=CC(=CC=C2)C(C)(C)C#N)NC3=CC4=C(C=C3)N=CN(C4=O)C [AZ628] + NC(=O)Nc1cc(-c2cccc(F)c2)sc1C(=O)N[C@H]1CCCNC1 [AZD7762] (partner 0.2 µM)
Procedure, shortened: as §1

Cell Line	relative viability ([1]; first compound 0.08 µM)	relative viability ([1]; first compound 0.253 µM)	relative viability ([1]; first compound 0.8 µM)	relative viability ([1]; first compound 2.53 µM)	relative viability ([1]; first compound 8 µM)	relative viability ([2]; first compound 0.08 µM)	relative viability ([2]; first compound 0.8 µM)	relative viability ([2]; first compound 2.53 µM)	relative viability ([2]; first compound 8 µM)	relative viability ([3]; first compound 0.08 µM)	relative viability ([3]; first compound 0.253 µM)	relative viability ([3]; first compound 0.8 µM)	relative viability ([3]; first compound 2.53 µM)	relative viability ([3]; first compound 8 µM)	relative viability ([4]; first compound 0.08 µM)	relative viability ([4]; first compound 0.253 µM)	relative viability ([4]; first compound 0.8 µM)	relative viability ([4]; first compound 2.53 µM)	relative viability ([4]; first compound 8 µM)
NCI-H2342	0.657	0.469	0.653	0.65	0.646	0.712	0.688	0.76	0.702	0.319	0.307	0.327	0.306	0.298	0.489	0.44	0.623	0.53	0.625
HOP-62	0.792	0.821	0.707	0.746	0.437	0.233	0.27	0.235	0.23	0.501	0.608	0.477	0.478	0.317	0.831	0.555	0.613	0.479	0.297
NCI-H1651	0.396	0.316	0.334	0.312	0.36	0.589	0.66	0.596	0.665	0.517	0.384	0.408	0.392	0.535	0.466	0.393	0.44	0.448	0.318
NCI-H2085	0.83	0.662	0.784	0.636	0.583	0.532	0.474	0.601	0.527	0.255	0.274	0.252	0.239	0.237	0.997	0.925	1.04	1.01	0.566
NCI-H23	0.841	0.806	0.619	0.716	0.595	0.341	0.292	0.35	0.311	0.708	0.75	0.44	0.509	0.302	0.226	0.23	0.151	0.184	0.146
NCI-H1355	0.502	0.444	0.431	0.411	0.39	0.38	0.357	0.304	0.369	0.723	0.663	0.611	0.626	0.458	0.798	0.754	0.737	0.638	0.541
NCI-H1734	0.383	0.346	0.282	0.327	0.247	0.558	0.483	0.504	0.529	0.424	0.552	0.525	0.511	0.349	0.504	0.56	0.561	0.473	0.373
EPLC-272H	0.419	0.37	0.363	0.302	0.2	0.377	0.37	0.353	0.329	0.317	0.345	0.398	0.357	0.231	0.34	0.168	0.165	0.22	0.236
LXF-289	0.527	0.499	0.473	0.501	0.362	0.41	0.424	0.347	0.4	0.192	0.23	0.279	0.274	0.167	1.12	1.08	0.98	1.06	0.652
NCI-H1395	0.478	0.39	0.423	0.436	0.422	0.79	0.659	0.727	0.645	0.411	0.426	0.416	0.423	0.362	0.431	0.421	0.381	0.372	0.358
H3255	0.41	0.33	0.337	0.393	0.302	0.634	0.587	0.662	0.674	0.311	0.362	0.319	0.351	0.252	0.852	0.726	0.806	1.01	0.684
NCI-H2170	0.447	0.398	0.402	0.41	0.381	0.488	0.502	0.544	0.458	0.555	0.391	0.46	0.557	0.481	0.882	0.793	0.832	1.02	0.743
NCI-H460	0.52	0.511	0.452	0.404	0.189	0.749	0.496	0.461	0.59	0.569	0.428	0.362	0.407	0.132	0.51	0.589	0.627	0.672	0.596
PC-14	0.638	0.438	0.498	0.599	0.416	0.253	0.197	0.201	0.202	0.274	0.289	0.315	0.262	0.146	0.48	0.324	0.338	0.316	0.296
HCC-15	0.479	0.4	0.366	0.417	0.224	0.727	0.565	0.643	0.722	0.642	0.496	0.389	0.404	0.23	1.16	1.07	1.08	1.01	0.894
NCI-H1437	0.369	0.266	0.262	0.331	0.318	0.653	0.565	0.583	0.599	0.415	0.242	0.275	0.43	0.39	1.17	1.07	0.657	1.13	0.898
NCI-H1975	0.421	0.388	0.403	0.384	0.215	0.382	0.429	0.425	0.374	0.351	0.292	0.283	0.248	0.174	0.78	0.624	0.711	0.779	0.623

Cell Line	relative viability ([1]; first compound 0.08 µM)	relative viability ([1]; first compound 0.253 µM)	relative viability ([1]; first compound 0.8 µM)	relative viability ([1]; first compound 2.53 µM)	relative viability ([1]; first compound 8 µM)	relative viability ([2]; first compound 0.08 µM)	relative viability ([2]; first compound 0.8 µM)	relative viability ([2]; first compound 2.53 µM)	relative viability ([2]; first compound 8 µM)	relative viability ([3]; first compound 0.08 µM)	relative viability ([3]; first compound 0.253 µM)	relative viability ([3]; first compound 0.8 µM)	relative viability ([3]; first compound 2.53 µM)	relative viability ([3]; first compound 8 µM)	relative viability ([4]; first compound 0.08 µM)	relative viability ([4]; first compound 0.253 µM)	relative viability ([4]; first compound 0.8 µM)	relative viability ([4]; first compound 2.53 µM)	relative viability ([4]; first compound 8 µM)
NCI-H522	0.628	0.516	0.617	0.542	0.663	0.626	0.627	0.711	0.705	0.758	0.952	0.732	0.919	0.731	0.826	0.721	0.749	0.863	0.708
NCI-H1666	0.584	0.582	0.543	0.518	0.514	0.679	0.74	0.766	0.786	0.812	0.733	0.669	0.665	0.668	0.837	0.742	0.645	0.737	0.651
A-427	0.207	0.242	0.25	0.245	0.181	0.569	0.517	0.581	0.493	0.594	0.472	0.301	0.314	0.153	0.591	0.569	0.6	0.524	0.352
EKVX	0.241	0.222	0.187	0.232	0.211	0.339	0.323	0.382	0.314	0.537	0.541	0.422	0.346	0.334	0.71	0.755	0.558	0.704	0.64
NCI-H650	0.536	0.471	0.552	0.509	0.498	0.296	0.35	0.333	0.338	0.529	0.487	0.463	0.558	0.434	1.14	1.24	1.37	1.14	0.691
NCI-H2087	0.348	0.289	0.246	0.27	0.169	0.322	0.286	0.28	0.282	0.565	0.32	0.226	0.237	0.154	1.04	1.04	1.03	1.13	0.298
NCI-H1755	0.614	0.626	0.585	0.589	0.46	0.748	0.801	0.714	0.784	0.459	0.39	0.417	0.381	0.326	0.466	0.385	0.392	0.429	0.356
NCI-H838	0.666	0.551	0.502	0.493	0.474	0.488	0.425	0.47	0.513	0.287	0.291	0.297	0.274	0.284	0.957	0.884	0.915	0.95	0.922
NCI-H1993	0.46	0.562	0.545	0.523	0.537	0.626	0.584	0.608	0.586	0.556	0.546	0.613	0.578	0.553	0.855	0.546	0.53	0.556	0.571
HARA	0.527	0.402	0.409	0.465	0.376	0.6	–	0.51	0.603	0.322	0.227	0.175	0.247	0.198	0.299	0.216	0.272	0.363	0.228
PC-3 [JPC-3]	0.441	0.477	0.485	0.464	0.383	0.748	0.773	0.847	0.796	0.936	0.893	1.02	1.05	0.604	0.929	0.754	0.808	0.83	0.727
ABC-1	0.274	0.188	0.205	0.211	0.235	1.16	1.09	1.1	0.953	0.592	0.412	0.583	0.516	0.52	0.761	0.786	0.768	0.865	0.745
NCI-H441	0.991	0.71	0.822	0.712	0.469	0.255	0.21	0.245	0.19	0.643	0.577	0.598	0.567	0.277	1.41	0.841	0.911	1.1	0.655
NCI-H1793	0.433	0.25	0.333	0.314	0.302	0.461	0.483	–	0.485	0.422	0.315	0.354	0.344	0.388	0.52	0.244	0.419	0.319	0.177
NCI-H2126	0.524	0.542	0.491	0.484	0.545	0.597	0.578	0.575	0.635	0.584	0.565	0.492	0.491	0.415	1.08	0.945	0.775	1.01	0.984
BEN	0.265	0.331	0.268	0.27	0.231	0.724	0.72	0.812	0.811	0.348	0.304	0.301	0.508	0.309	0.678	0.593	0.653	0.614	0.587
HCC-366	0.585	0.572	0.554	0.598	0.499	0.407	–	0.413	0.352	0.663	0.653	0.492	0.55	0.406	0.248	0.193	0.235	0.207	0.149
